Tests used:
Type in all cases: tissue-based
Rattus norvegicus [1] = species on record: Rattus norvegicus; experiment: Inhibition of PDE in Sprague-Dawley rat epididymal adipose tissue assessed as [14C]adenosine recovery at 0.05 to 3 ug/ml by liquid scintillation counting
Rattus norvegicus [2] = species on record: Rattus norvegicus; experiment: Inhibition of PDE in Sprague-Dawley rat epididymal adipose tissue assessed as [14C]adenosine recovery at 100 uM by liquid scintillation counting
Rattus norvegicus [3] = species on record: Rattus norvegicus; experiment: Inhibition of PDE in Sprague-Dawley rat epididymal adipose tissue assessed as [14C]adenosine recovery at 1 mM by liquid scintillation counting
Rattus norvegicus [4] = species on record: Rattus norvegicus; experiment: Inhibition of PDE in Sprague-Dawley rat epididymal adipose tissue assessed as [14C]adenosine recovery at 200 uM by liquid scintillation counting
[5] = (§1) Inhibition of PDE in Sprague-Dawley rat epididymal adipose tissue assessed as [14C]adenosine recovery by liquid scintillation counting
Rattus norvegicus [6] = species on record: Rattus norvegicus; experiment: as §1; conditions: dose or concentration not given here
Rattus norvegicus [7] = species on record: Rattus norvegicus; experiment: Inhibition of PDE in Sprague-Dawley rat epididymal adipose tissue assessed as [14C]adenosine recovery at 3.6 uM by liquid scintillation counting

SMILES: COc1ccc(-c2cc(=O)c3c(O)cc(O)c(-c4cc(-c5cc(=O)c6c(O)cc(OC)cc6o5)ccc4OC)c3o2)cc1
- inhibition (Rattus norvegicus [1]): 10%

SMILES: COc1ccc(Cc2nccc3cc(OC)c(OC)cc23)cc1OC
- inhibition (Rattus norvegicus [2]): > 90%

SMILES: Cn1c(=O)c2[nH]cnc2n(C)c1=O
- inhibition (Rattus norvegicus [3]): > 90%

SMILES: O=c1c(O)c(-c2ccc(O)cc2)oc2cc(O)cc(O)c12
- inhibition (Rattus norvegicus [4]): > 90%

SMILES: O=c1cc(-c2ccc(O)c(-c3c(O)cc(O)c4c(=O)cc(-c5ccc(O)cc5)oc34)c2)oc2cc(O)cc(O)c12 [AMENTOFLAVONE]
- IC50 [5]: 270 nM
- inhibition (Rattus norvegicus [6]): 85%

SMILES: COc1ccc(-c2cc(=O)c3c(O)cc(O)cc3o2)cc1-c1c(O)cc(O)c2c(=O)cc(-c3ccc(O)cc3)oc12 [BILOBETIN]
- IC50 [5]: 360 nM
- inhibition (Rattus norvegicus [6]): 84%

SMILES: COc1cc(O)c2c(=O)cc(-c3ccc(O)c(-c4c(O)cc(O)c5c(=O)cc(-c6ccc(O)cc6)oc45)c3)oc2c1 [SEQUOIAFLAVONE]
- inhibition (Rattus norvegicus [7]): 94%
- IC50 [5]: 1010 nM

— ChEMBL document CHEMBL1151310, “Inhibition of cAMP-phosphodiesterase by biflavones of Ginkgo biloba in rat adipose tissue” (J Nat Prod, 1998)
